This note sets out measurements from patent publication US11554120B2, “1H-pyrazolo[4,3-d]pyrimidine compounds as toll-like receptor 7 (TLR7) agonists and methods and uses therefor” (BRISTOL-MYERS SQUIBB COMPANY, priority 2018, dated 2023).

This experiment has as its target T1, human TLR7 (Homo sapiens, UniProt Q9NYK1).
T1 construct: host or cells: HEK-Blue TLR7 cells (engineered human embryonic kidney cells)
T1 sequence (Q9NYK1 27-1049): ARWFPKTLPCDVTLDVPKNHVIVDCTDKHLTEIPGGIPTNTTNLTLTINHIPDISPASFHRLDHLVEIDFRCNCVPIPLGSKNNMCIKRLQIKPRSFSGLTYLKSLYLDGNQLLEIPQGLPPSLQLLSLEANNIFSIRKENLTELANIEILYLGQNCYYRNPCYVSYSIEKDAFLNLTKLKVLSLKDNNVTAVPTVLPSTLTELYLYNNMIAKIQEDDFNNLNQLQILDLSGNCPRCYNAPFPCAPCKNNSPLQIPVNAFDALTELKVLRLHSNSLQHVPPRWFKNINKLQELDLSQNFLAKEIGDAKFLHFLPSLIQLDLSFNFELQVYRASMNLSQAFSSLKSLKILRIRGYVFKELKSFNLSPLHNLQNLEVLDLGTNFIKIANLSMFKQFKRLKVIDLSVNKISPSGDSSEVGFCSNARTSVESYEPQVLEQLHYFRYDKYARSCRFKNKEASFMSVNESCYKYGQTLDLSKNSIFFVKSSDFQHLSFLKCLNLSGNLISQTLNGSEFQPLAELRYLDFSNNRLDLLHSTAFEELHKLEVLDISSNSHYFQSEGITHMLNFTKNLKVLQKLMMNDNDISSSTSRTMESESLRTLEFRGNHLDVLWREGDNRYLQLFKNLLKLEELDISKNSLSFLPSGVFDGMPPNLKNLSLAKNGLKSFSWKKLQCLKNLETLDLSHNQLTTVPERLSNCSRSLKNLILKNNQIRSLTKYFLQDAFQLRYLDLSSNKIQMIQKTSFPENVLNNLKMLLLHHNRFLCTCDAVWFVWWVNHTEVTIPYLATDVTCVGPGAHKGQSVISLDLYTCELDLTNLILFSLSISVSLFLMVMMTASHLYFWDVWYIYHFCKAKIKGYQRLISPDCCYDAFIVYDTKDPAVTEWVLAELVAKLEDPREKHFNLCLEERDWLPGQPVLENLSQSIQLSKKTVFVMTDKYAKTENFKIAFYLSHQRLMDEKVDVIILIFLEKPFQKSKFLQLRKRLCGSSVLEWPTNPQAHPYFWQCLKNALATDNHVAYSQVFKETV
Description: Human TLR7 agonist activity assay (HEK-Blue TLR7 SEAP reporter). To be noted: HEK-Blue TLR7 cells, 18 h treatment, in some instances average of plural assays, read-out: hTLR7 EC50. The format is cell-based.
Description: Human TLR7 Agonist Activity Assay
HEK-Blue™ TLR7 cells were added to each well of a 384-well tissue-culture plate (15,000 cells per well) and incubated 16-18 h at 37° C., 5% CO2. Compounds (100 nl) were dispensed into wells containing the HEK-Blue™ TLR cells and the treated cells were incubated at 37° C., 5% CO2. After 18 h treatment ten microliters of freshly-prepared Quanti-Blue™ reagent (Invivogen) was added to each well, incubated for 30 min (37° C., 5% CO2) and SEAP levels measured using an Envision plate reader (OD=620 nm).

As to `CCC[C@@H](CCO)Nc1nc(N)nc2cnn(Cc3ccc(CNC4CC(C(C)(C)C)C4)cc3OC)c12` (stereo partly shown) [Compound 866], the 50% effective concentration (EC50) was found to be 19.5 nM.

Regarding `CCC[C@@H](CCO)Nc1nc(N)nc2cnn(Cc3ccc(CN4CC(OC(C)C)C4)cc3OC)c12` [Compound 868], the EC50 turned out to be 1.4 nM. In the case of `CCCCNc1nc(N)nc2cnn(Cc3ccc(CN4CCN(CCO)CC4)cc3F)c12` [Compound 870] it was 1800 nM. As for `CCC[C@H](CCO)Nc1nc(N)nc2cnn(Cc3ccc(CNC4CCC4)cc3OC)c12` [Compound 872], the EC50 came out at 32.7 nM.

Take `CCCCNc1nc(N)nc2cnn(Cc3ccc(CC#N)cc3OC)c12` [Compound 873]: the EC50 was determined as 253 nM. `CCC[C@@H](CCO)Nc1nc(N)nc2cnn(Cc3ccc(CO)cc3)c12` [Compound 874]: the EC50 was determined as 2050 nM. For the compound `CCC[C@@H](CCO)Nc1nc(N)nc2cnn(Cc3ccc(CNC4CCC4)cc3)c12` [Compound 875], the EC50 is 58 nM. As to `CCC[C@@H](CCO)Nc1nc(N)nc2cnn(Cc3ccc(CN4CC(OC)C4)cc3)c12` [Compound 877], the EC50 was determined as 190 nM.

On to `CCC[C@@H](CCO)Nc1nc(N)nc2cnn(Cc3ccc(CN4CC(O)C4)cc3)c12` [Compound 878], for which the EC50 amounted to 1110 nM. `CCC[C@@H](CCO)Nc1nc(N)nc2cnn(Cc3ccc(CN4CCN(CCO)CC4)cc3)c12` [Compound 879]: the EC50 is 370 nM.
